Patent publication US9580498B2, “Monoclonal antibody for antagonizing and inhibiting binding of vascular endothelial growth factor to its receptor, and coding sequence” (SUZHOU STAINWEI BIOTECH INC., priority 2012, dated 2017)

Columns and labels:
Format in all cases: in vivo
human HCT-8 colon cancer = assay: Transplanted human HCT-8 colon cancer in nude mice; conditions: 5 mg/kg i.p. twice a week for 4 weeks; day 30
Description: The establishing method is basically the same as that in Example 10.
Observing the tumor growth of the nude mice inoculated with the human HCT-8 colon cancer and, when the tumor volume is about 50-100 mm^3, screening according to the size of the tumor volume, with the too large tumor and minor tumor not selected.
The above nude mice inoculated with human HCT-8 colon cancer were divided into the following seven groups (8 mice/group) for administration, intraperitoneally injecting twice a week successively for 4 weeks, and ending the test on the 30th day (D30).
(§1) At the end of experiment, tumors were removed after euthanasia, and the tumor weight were measured. The treatment effect was measured by the ratio of tumor size in the testing group (T) versus the control group (C), i.e. T/C %.
After the first treatment, the long and short diameters of the tumor were measured twice a week, and the tumor volume V and the relative tumor volume RTV thereof (Vt/VO) were calculated
At day 30, each animal was euthanized, and its tumor was removed and weighted and the average tumor weight in each group was calculated.

[1] = system: human Ls-174-T colon cancer; assay: Transplanted human Ls-174-T colon cancer in nude mice; conditions: 5 mg/kg i.p. twice a week for 4 weeks; day 29
Description: Two nude mice were prepared to serve as tumor bearing mice. 1×10^7 of human Ls-174-T colon cancer cells (purchased from Cell Preservation Center of Shanghai Institutes for Biological Sciences, Chinese Academy of Sciences) at the log-growth cycle, or tumor mass in a size of about 1.5 mm^3, were inoculated subcutaneously into the right armpit of these two nude mice. […]
as §1
After the first administration, both the long and short diameters of tumors were recorded twice a week, and tumor volume (V) and the relative tumor volume (RTV) were calculated. The calculation formula for RTV is: RTV=Vt/Vo, where Vt is the tumor volume measured at each time point (day), and Vo is the initial (before administration) tumor volume.
At day 29, each animal was euthanized, and its tumor was removed and weighted and the average tumor weight in each group was calculated.

[2] = system: human MDA-MB-231 breast cancer; assay: Transplanted human MDA-MB-231 breast cancer in nude mice; conditions: 5 mg/kg i.p. twice a week for 5 weeks; day 36
Description: The tumor model establishment is basically the same as that in Example 10.
(§2) Nude mice were inoculated with human MDA-MB-231 breast cancer. When the tumor volume reached about 50-100 mm^3, a screening was done and those mice bearing tumors too small or too large in size were excluded. The selected mice were then randomly divided into different groups for different doses of drugs
The above nude mice inoculated with human MDA-MB-231 breast cancer were divided into the following five treatment groups (7 mice/group). Antibodies were injected intraperitoneally twice a week for 5 weeks, and ending the test on the 36th day (D36).
as §1
(§3) After the first administration, the long and short diameters of the tumor were measured twice a week, and the tumor volume (V) and the relative tumor volume RTV thereof (Vt/VO) were calculated.
At day 36, each animal was euthanized, and its tumor was removed and weighted and the average tumor weight in each group was calculated.

[3] = system: human A673 rhabdomyosarcoma; assay: Transplanted human A673 rhabdomyosarcoma in nude mice; conditions: 5 mg/kg i.p. twice a week for 3 weeks; day 22
Description: The establishment of this tumor method is basically the same as that in Example 10.
as §2, with “A673 rhabdomyosarcoma.” for “MDA-MB-231 breast cancer.”
Dividing the above nude mice inoculated with the human A673 rhabdomyosarcoma into the following six groups (6 mice/group) for administration, intraperitoneally injecting twice a week successively for 3 weeks, and ending the test on the 22nd day (D22).
as §1, §3
At day 22, each animal was euthanized, and its tumor was removed and weighted and the average tumor weight in each group was calculated.

Compound: N.N.[Cl][Pt][Cl] [cisplatin, reference compound]
- average tumor weight (human HCT-8 colon cancer): 1.201 g
- tumor weight inhibition rate (human HCT-8 colon cancer): 25.29%

Compound: Avastin: humanized anti-VEGF monoclonal antibody drug developed and produced by Roche/Genentech [reference compound]
- average tumor weight [1]: 0.767 g
- tumor weight inhibition rate [1]: 74.05%
- average tumor weight [2]: 0.543 g
- tumor weight inhibition rate [2]: 38.99%
- average tumor weight [3]: 3.323 g
- tumor weight inhibition rate [3]: 61.92%
